Source: US12365651B2, “Use of pirfenidone and derivatives for modulation of B lymphocyte activity and organ protection from acute tissue damage” (Washington University, priority 2017, dated 2025)
Several values for one entry are separate records, joined by “and”; a condition that tells them apart may be missing. Equal values may be shown once.

Key:
[1] = test system: peritoneal derived inflammatory cells (PDICs); assay: CD86 on CD19+ cells in cultured peritoneal derived inflammatory cells (PDICs), wild type; type: cell-based, mouse; settings: for number of CD19+ CD86high lymphocytes: 24 h, p<0.001
Protocol: Peritoneal derived inflammatory cells (PDICs) were harvested from the peritoneal cavity of thioglycolate-stimulated wild-type and TIRAP−/− deficient mice. PDIC cultures contain an admixture of inflammatory cells, including CD19+ B cells (40). TIRAP deficient mice were a gift from Dr. Ruslan Medzhitov (Yale University, New Haven, CT). PDICs were harvested on day 4 after i.p. injection of 1 ml of thioglycolate medium (Millipore, Billerica, MA, USA). Mice were euthanized, and the peritoneal cavity was washed 3-4 times with 3 mLs of Dulbecco's modified medium containing 10% fetal calf serum. A 3 mL syringe with an 18-gauge needle was used to inject the peritoneal cavity and retrieve the medium containing PDICs. Harvested cells were centrifuged at 250 g for 5 minutes, re-suspended in 5 mL of media and then filtered through a 40 μm strainer. Cells were plated at ˜1.5 million cells/mL in 12 or 24 well plates. Primary splenic derived B lymphocytes were isolated with the MagniSort Mouse B cell Enrichment Kit (Invitrogen, Carlsbad, CA, USA) according to manufacturer's instruction and plated in 96 well plates at 1 million cells/ml. The purity of isolated B cells was checked by flow cytometry and was >85% in all reported experiments. Both PDICs and primary B lymphocytes were cultured in DMEM with 10% FCS, 1 mM sodium pyruvate, penicillin/streptomycin (GIBCO, 1×), 2 mM L-Glutamine, 10 mM Hepes and 55 μM 2-Mercaptoethanol.
We used LPS-EB ultrapure lipopolysaccharide (InvivoGen, San Diego, CA, USA) or necrotic cell extracts (NCEs) to stimulate the cell cultures. For stimulation with LPS, LPS was added at 100 ng/mL at the time of plating. NCEs were prepared from H9c2 cells, in a similar manner to the protocol described for mouse heart and mouse liver extracts (18). For stimulation, NCEs were added at a final concentration of 10 μg/mL at the time the cells were plated. LPS and NCE stimulation were performed in the presence and absence of Pirfenidone for 24 hours. […]

[2] = test system: PDICs obtained from thioglycolate-stimulated TIRAP−/− mice; assay: CD86 on CD19+ cells in cultured PDICs from TIRAP−/− mice; type: cell-based, mouse; settings: LPS stimulated cultures
Description: Noting that prior studies have shown that B cells are activated by engagement of TLR by damage-associated molecular patterns (DAMPs) released by necrotic cells (17), and noting that TLR signaling was present in CD19+CD11b− lymphocytes sorted from DT injured animals but absent in the same cells sorted from DT injured animals treated with Pirfenidone, we focused our in vitro studies on CD19+ cells using lipolysaccharide (a classic TLR4 agonist and a T-independent antigen), as well as necrotic cardiac cell extracts, which we and others have shown signal through TLR4 (18). […] To further explore the role of TLR mediated signaling, we repeated these experiments in PDICs obtained from thioglycolate-stimulated TIRAP−/− mice. […] Importantly, both mechanisms were sensitive to treatment with Pirfenidone (FIG. 10E and FIG. 10F).
Peritoneal derived inflammatory cells (PDICs) were harvested from the peritoneal cavity of thioglycolate-stimulated wild-type and TIRAP−/− deficient mice. PDIC cultures contain an admixture of inflammatory cells, including CD19+ B cells (40). TIRAP deficient mice were a gift from Dr. Ruslan Medzhitov (Yale University, New Haven, CT). PDICs were harvested on day 4 after i.p. injection of 1 ml of thioglycolate medium (Millipore, Billerica, MA, USA). […]

[3] = Plasma pharmacokinetics after IV or PO administration; type: in vivo; settings: SD Rat, PO 40 mg/kg

AUMC0-t, Mean [3]: 14976 h*h*ng/mL
Tmax ([3]; Sprague-Dawley, plasma, individual rats 7-9): 15 min
Structure (SMILES): Cc1ccc(=O)n(-c2ccccc2)c1 [Pirfenidone, 5 methyl-1-phenyl-2-[H] pyridone]
LPS induced expression of CD86 on B cells ([1]; B lymphocytes from the peritoneum, 24 hours, LPS + 0.5% pirfenidone): significantly reduced
number of CD19+ CD86high lymphocytes ([1]; PDICs stimulated with LPS): significantly attenuated
number of CD19+ CD86high lymphocytes ([1]; PDICs stimulated with cytosolic extracts from necrotic cells): significantly attenuated
CD19+ CD86high lymphocytes [2]: small but significant (p<0.001) decrease
Plasma concentrations of Pirfenidone ([3]; 8 h, individual rats 7-9, 40 mg/kg): BLOQ (Below lower limit of quantification (1 ng/mL)) and 23.6 ng/ml and 107 ng/ml
